Where two headings read alike, the source gives them in different places.

For experiment [1], the target named is T1, CDK9/CyclinT1 (Homo sapiens, UniProt P50750).
T1 construct: Recombinant full-length His-tagged human CDK9 and CycT1; His-tag; purchased Life Technologies PV4131; host or cells: insect cells
Put plainly: CDK9/CycT1 high ATP kinase assay (TR-FRET). It is filed as biochemical. The settings on record: 2 mM ATP (high ATP); median; read-out: CDK9/CyclinT1, 2 mM ATP (high ATP) IC50 - [mol/l] (median). In outline:
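Full-length His-tagged human CDK9/CycT1 (insect cell) at ~0.5 µg/mL, preincubated with compound 15 min at 22 °C in Tris pH 8.0 buffer, then reacted 25 min with 2 mM ATP and 0.75 µM biotinylated peptide (final). Phospho-substrate detected by TR-FRET (anti-RB pSer807/811, Eu/XL665), 665/620 nm ratio normalised to no-inhibitor and no-enzyme controls.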
For orientation: In TR-FRET formats the signal depends on donor and acceptor labels being close together.

The subject of experiment [2] is BRCA1 mRNA expression in MDA-MB-231 cells. Kind of experiment: qRT-PCR assay: inhibition of BRCA1 mRNA expression in MDA-MB-231 cells. It counts as cell-based, human. The settings on record: 24 h exposure, BRCA1 mRNA normalised to GAPDH, median, read-out: RTqPCR-MDA-MB-231 IC50 [mol/l] BRCA1 (median). The procedure:
3. qRT-PCR Assay: BRCA1, ATR, MCL1 in MDA-MB-231, CAL-120
Tissue cultured human MDA-MB-231 human breast cancer cells were plated in 500 microL per well at 200,000 cells/well in a 24 well microtiter plate. After 24 h, the cells were exposed continuously for 24 h to test substances (substances were added with Tecan HP D300 Dispenser). RNA was prepared using Qiagen RNeasy MiniKit (#74106), RNA was quantified using a NanoDrop Equipment, and 600 nano gamms of RNA was coverted to cDNA using a SuperScript VILO kit (Thermofisher #11755050) followed by qPCR amplification. BRCA1 and ATR gene expression was measured by RT-qPCR and normalised to GAPDH housekeeping gene expression. qPCR primer sets have been purchased from Thermo Fisher Scientific/Applied Biosystems: BRCA1, # Hs 01556193; ATR, #Hs 00992123; GAPDH, #Hs 03929097.
On the technique in general: In qPCR the cycle at which signal appears reflects the starting amount.

The test system of experiment [3] is CAL-120 human breast adenocarcinoma cells. Kind of experiment: Proliferation assay CAL-120 (crystal violet). The note with it: CAL-120 cells, 4 days, median, read-out: Prolif-CAL-120— IC50 - [mol/l] (median). It is filed as cell-based. The procedure, abridged:
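Cells seeded at 4,000/well in medium with 10% fetal calf serum, dosed after 24 h (0.01-10 micromol/L, 0.1% DMSO) and grown 4 days. Crystal violet staining read at 595 nm, normalised to zero-point plate (0%) and untreated cells (100%); IC50 by 4-parameter fit.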

T1 sequence (P50750 whole entry): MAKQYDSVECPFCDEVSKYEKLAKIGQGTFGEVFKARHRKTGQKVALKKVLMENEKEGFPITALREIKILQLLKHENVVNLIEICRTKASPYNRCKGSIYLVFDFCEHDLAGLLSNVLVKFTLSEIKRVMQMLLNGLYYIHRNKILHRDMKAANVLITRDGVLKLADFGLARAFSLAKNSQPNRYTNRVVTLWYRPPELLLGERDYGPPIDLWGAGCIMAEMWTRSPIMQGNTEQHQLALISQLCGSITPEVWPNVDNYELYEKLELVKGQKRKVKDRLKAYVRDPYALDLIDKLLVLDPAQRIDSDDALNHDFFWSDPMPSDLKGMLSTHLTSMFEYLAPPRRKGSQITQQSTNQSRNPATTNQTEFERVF
T1 sequence (O60563 whole entry partner): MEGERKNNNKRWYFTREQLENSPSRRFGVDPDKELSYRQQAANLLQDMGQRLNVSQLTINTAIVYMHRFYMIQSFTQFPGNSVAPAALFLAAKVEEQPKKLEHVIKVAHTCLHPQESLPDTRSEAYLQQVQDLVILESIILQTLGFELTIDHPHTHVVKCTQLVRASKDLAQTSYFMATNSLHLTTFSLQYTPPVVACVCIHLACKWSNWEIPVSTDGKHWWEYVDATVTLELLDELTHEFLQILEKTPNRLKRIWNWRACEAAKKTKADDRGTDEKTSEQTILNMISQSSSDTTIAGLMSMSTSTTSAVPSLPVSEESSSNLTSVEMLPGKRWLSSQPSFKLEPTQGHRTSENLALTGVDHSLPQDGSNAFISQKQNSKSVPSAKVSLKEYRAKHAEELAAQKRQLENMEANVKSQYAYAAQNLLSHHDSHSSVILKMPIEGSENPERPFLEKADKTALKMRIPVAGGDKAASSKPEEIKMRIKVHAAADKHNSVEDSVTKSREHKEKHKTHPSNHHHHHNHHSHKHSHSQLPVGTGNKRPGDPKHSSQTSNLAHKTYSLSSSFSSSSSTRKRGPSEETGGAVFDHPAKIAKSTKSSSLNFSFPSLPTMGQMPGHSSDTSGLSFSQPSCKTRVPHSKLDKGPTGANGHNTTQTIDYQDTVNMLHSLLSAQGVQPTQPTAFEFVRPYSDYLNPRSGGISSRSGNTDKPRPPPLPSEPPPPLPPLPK

With `CN1CCCC(n2nc(NCc3nc4ccccc4[nH]3)c3ncc(C4CC4)nc32)CC1` (single isomer, unassigned) [Example 38, (−) or (+)-N-[(1H-benzimidazol-2-yl)methyl]-6-cyclopropyl-1-[(4R*)-1-methylazepan-4-yl]-1H-pyrazolo[3,4-b]pyrazin-3-amine], the IC50 is greater than 20 µM in experiment [1], 0.0218 µM in experiment [2] and 0.00985 µM in experiment [3].
Turning to `CN1CCC(n2nc(NCc3nc4ccccc4[nH]3)c3ncc(C4CC4)nc32)C1` (single isomer, unassigned) [Example 78, (+) or (−)-N-[(1H-benzimidazol-2-yl)methyl]-6-cyclopropyl-1-(1-methylpyrrolidin-3-yl)-1H-pyrazolo[3,4-b]pyrazin-3-amine], the IC50 is greater than 20 µM in experiment [1]; 0.0156 µM in experiment [2] (Homo sapiens, MDA-MB-231, 24 h); 0.0112 µM in experiment [3].
On to `COCCC(C)n1nc(NCc2nc3ccccc3[nH]2)c2ncc(C3CC3)nc21` (single isomer, unassigned; (+)) [Example 59, (+)-N-[(1H-benzimidazol-2-yl)methyl]-6-cyclopropyl-1-[4-methoxybutan-2-yl]-1H-pyrazolo[3,4-b]pyrazin-3-amine], for which the IC50 was greater than 20 µM in experiment [1], 0.248 µM in experiment [2] and 0.44 µM in experiment [3].
As to `COCCC(C)n1nc(NCc2nc3ccccc3[nH]2)c2ncc(C3CC3)nc21` (single isomer, unassigned; (-)) [Example 58, (−)-N-[(1H-benzimidazol-2-yl)methyl]-6-cyclopropyl-1-[4-methoxybutan-2-yl]-1H-pyrazolo[3,4-b]pyrazin-3-amine], the results for the IC50 in experiment [1], in experiment [2] and in experiment [3] were greater than 20 µM, 0.0282 µM and 0.156 µM, respectively.
As for `CN1CCC(n2nc(NCc3nc4ccccc4[nH]3)c3ncc(C4CC4)nc32)CC1` [Example 1, N-[(1H-benzimidazol-2-yl)methyl]-6-cyclopropyl-1-(1-methylpiperidin-4-yl)-1H-pyrazolo[3,4-b]pyrazin-3-amine], the IC50 is greater than 20 µM in experiment [1]; 0.0137 µM in experiment [2] (Homo sapiens, MDA-MB-231, 24 h); 0.0328 µM in experiment [3] (Homo sapiens, CAL-120, 96 h).
Taken in the same sequence, the figures for `COc1cccc2[nH]c(CNc3nn(C4CCN(C)CC4)c4nc(C5CC5)cnc34)nc12` [Example 2, 6-cyclopropyl-N-[(4-methoxy-1H-benzimidazol-2-yl)methyl]-1-(1-methylpiperidin-4-yl)-1H-pyrazolo[3,4-b]pyrazin-3-amine] were greater than 20 µM, 0.00855 µM and 0.011 µM.
Taken in the same sequence, the figures for `CN1CCC(n2nc(NCc3nc4c(F)cccc4[nH]3)c3ncc(C4CC4)nc32)CC1` [Example 3, 6-cyclopropyl-N-[(4-fluoro-1H-benzimidazol-2-yl)methyl]-1-(1-methylpiperidin-4-yl)-1H-pyrazolo[3,4-b]pyrazin-3-amine] were greater than 20 µM, 0.00864 µM and 0.0033 µM.
Taken in the same sequence, the figures for `CN1CCC(n2nc(NCc3nc4cc(F)ccc4[nH]3)c3ncc(C4CC4)nc32)CC1` [Example 4, 6-cyclopropyl-N-[(5-fluoro-1H-benzimidazol-2-yl)methyl]-1-(1-methylpiperidin-4-yl)-1H-pyrazolo[3,4-b]pyrazin-3-amine] were greater than 20 µM, 0.0171 µM and 0.0163 µM.
Turning to `CC(C)n1nc(NCc2nc3ccccc3[nH]2)c2ncc(C3CC3)nc21` [Example 14, N-[(1H-benzimidazol-2-yl)methyl]-6-cyclopropyl-1-(propan-2-yl)-1H-pyrazolo[3,4-b]pyrazin-3-amine], the IC50 in experiment [1] was greater than 20 µM; in experiment [2] (Homo sapiens, MDA-MB-231, 24 h), 0.0429 µM; in experiment [3] (Homo sapiens, CAL-120, 96 h), 0.0964 µM.
Taken in the same sequence, the figures for `c1ccc2[nH]c(CNc3nn(C4CCOCC4)c4nc(C5CC5)cnc34)nc2c1` [Example 16, N-[(1H-benzimidazol-2-yl)methyl]-6-cyclopropyl-1-(oxan-4-yl)-1H-pyrazolo[3,4-b]pyrazin-3-amine] were greater than 20 µM, 0.0129 µM and 0.103 µM.
`CN1CCC(n2nc(NCc3nc4cc(Cl)c(Cl)cc4[nH]3)c3ncc(C4CC4)nc32)CC1` [Example 19, 6-cyclopropyl-N-[(5,6-dichloro-1H-benzimidazol-2-yl)methyl]-1-(1-methylpiperidin-4-yl)-1H-pyrazolo[3,4-b]pyrazin-3-amine]: the IC50 in experiment [1] was greater than 20 µM; in experiment [2] (Homo sapiens, MDA-MB-231, 24 h), 0.00859 µM; in experiment [3] (Homo sapiens, CAL-120, 96 h), 0.00361 µM.
Taken in the same sequence, the figures for `CN1CCC(n2nc(NCc3nc4c(Br)cccc4[nH]3)c3ncc(C4CC4)nc32)CC1` [Example 20, N-[(4-bromo-1H-benzimidazol-2-yl)methyl]-6-cyclopropyl-1-(1-methylpiperidin-4-yl)-1H-pyrazolo[3,4-b]pyrazin-3-amine] were greater than 20 µM, 0.0206 µM and 0.00727 µM.
Taken in the same sequence, the figures for `Cc1c(Cl)ccc2[nH]c(CNc3nn(C4CCN(C)CC4)c4nc(C5CC5)cnc34)nc12` [Example 21, N-[(5-chloro-4-methyl-1H-benzimidazol-2-yl)methyl]-6-cyclopropyl-1-(1-methylpiperidin-4-yl)-1H-pyrazolo[3,4-b]pyrazin-3-amine] were greater than 20 µM, 0.0261 µM and 0.00793 µM.
Regarding `CN1CCC(n2nc(NCc3nc4cc(Cl)ccc4[nH]3)c3ncc(C4CC4)nc32)CC1` [Example 22, N-[(5-chloro-1H-benzimidazol-2-yl)methyl]-6-cyclopropyl-1-(1-methylpiperidin-4-yl)-1H-pyrazolo[3,4-b]pyrazin-3-amine], the IC50 is greater than 20 µM in experiment [1]; 0.00936 µM in experiment [2] (Homo sapiens, MDA-MB-231, 24 h); 0.00421 µM in experiment [3] (Homo sapiens, CAL-120, 96 h).
Taken in the same sequence, the figures for `Fc1cccc2[nH]c(CNc3nn(C4CCOCC4)c4nc(C5CC5)cnc34)nc12` [Example 23, 6-cyclopropyl-N-[(4-fluoro-1H-benzimidazol-2-yl)methyl]-1-(oxan-4-yl)-1H-pyrazolo[3,4-b]pyrazin-3-amine] were greater than 20 µM, 0.0309 µM and 0.0154 µM.
Taken in the same sequence, the figures for `COc1cccc2[nH]c(CNc3nn(C4CCOCC4)c4nc(C5CC5)cnc34)nc12` [Example 24, 6-cyclopropyl-N-[(4-methoxy-1H-benzimidazol-2-yl)methyl]-1-(oxan-4-yl)-1H-pyrazolo[3,4-b]pyrazin-3-amine] were greater than 20 µM, 0.00477 µM and 0.01 µM.
Taken in the same sequence, the figures for `CN1CCC(n2nc(NCc3nc4cc(C(F)(F)F)ccc4[nH]3)c3ncc(C4CC4)nc32)CC1` [Example 25, 6-cyclopropyl-1-(1-methylpiperidin-4-yl)-N-{[5-(trifluoromethyl)-1H-benzimidazol-2-yl]methyl}-1H-pyrazolo[3,4-b]pyrazin-3-amine] were greater than 20 µM, 0.00588 µM and 0.00314 µM.
On to `Cc1c(F)ccc2[nH]c(CNc3nn(C4CCN(C)CC4)c4nc(C5CC5)cnc34)nc12` [Example 26, 6-cyclopropyl-N-[(5-fluoro-4-methyl-1H-benzimidazol-2-yl)methyl]-1-(1-methylpiperidin-4-yl)-1H-pyrazolo[3,4-b]pyrazin-3-amine], for which the IC50 in experiment [1] is greater than 20 µM; in experiment [2] (Homo sapiens, MDA-MB-231, 24 h), 0.02 µM; in experiment [3] (Homo sapiens, CAL-120, 96 h), 0.0101 µM.
Taken in the same sequence, the figures for `Cc1ccc2[nH]c(CNc3nn(C4CCN(C)CC4)c4nc(C5CC5)cnc34)nc2c1C` [Example 28, 6-cyclopropyl-N-[(4,5-dimethyl-1H-benzimidazol-2-yl)methyl]-1-(1-methylpiperidin-4-yl)-1H-pyrazolo[3,4-b]pyrazin-3-amine] were greater than 20 µM, 0.0168 µM and 0.00954 µM.
Regarding `CN1CCC(n2nc(NCc3nc4cc(Cl)c(F)cc4[nH]3)c3ncc(C4CC4)nc32)CC1` [Example 29, N-[(5-chloro-6-fluoro-1H-benzimidazol-2-yl)methyl]-6-cyclopropyl-1-(1-methylpiperidin-4-yl)-1H-pyrazolo[3,4-b]pyrazin-3-amine], the IC50 in experiment [1] was greater than 20 µM; in experiment [2] (Homo sapiens, MDA-MB-231, 24 h) it was 0.00947 µM; in experiment [3] (Homo sapiens, CAL-120, 96 h), 0.00975 µM.

The record behind these values is patent publication US20230192700A1, “PYRAZOLOPYRAZINES ACTING ON CANCERS VIA INHIBITION OF CDK12” (Bayer Aktiengesellschaft, priority 2020, published 2023).
